Experimental data taken from US11458213B2, “Prostate-specific membrane antigen targeted high-affinity agents for endoradiotherapy of prostate cancer” (THE JOHNS HOPKINS UNIVERSITY, priority 2016, dated 2022).

How the values were obtained:
[1] = molecular target: prostate-specific membrane antigen (PSMA) (Homo sapiens, UniProt Q04609); experiment: Binding affinities of the representative agents (PSMA)
[2] = LogP octanol/water; type: physicochemical
[3] = system: PSMA-PC3 flu cells; experiment: Clonogenic assay in PSMA- PC3 flu cells; type: cell-based; conditions: 10 μCi dose
[4] = system: PSMA+ PC3 PIP tumor; experiment: In vivo tissue biodistribution; conditions: for tissue biodistribution PC-3 Flu: PC-3 Flu tumor; for tissue biodistribution PC-3 PIP: PC-3 PIP tumor
[5] = system: PSMA-negative PC3 flu cells; experiment: Cell uptake in PSMA-negative PC3 flu cells; type: cell-based; conditions: 4 h incubation, n = 3
[6] = system: PSMA+ PC3 PIP cells; experiment: Cell binding, uptake and internalization in PSMA+ PC3 PIP cells; type: cell-based; conditions: for Cell surface / Cell uptake PSMA + PC3 PIP / Internalization (cell lysate): 4 h incubation, n = 3; for uptake in PSMA+ PC3 cells (in words): compared to ^177Lu-3
[7] = system: PSMA+ PC3 PIP tumor; experiment: Treatment study (SPECT imaging and therapeutic effect) in tumor-bearing mice; type: in vivo
Procedure: A single dose of 3 mCi was injected via tail-vain injection in mice (n=10) bearing PSMA+ PC3 PIP tumor (size 3-5 mm). Saline was injected to another group of mice (n=10) for control study. Mice were monitored for body weight tumor size measure for two times per week. The control group of mice was euthanized after 4-8 weeks as the size of tumors over were >12 mm.

[8] = system: PSMA+ PC3 PIP cells; experiment: Clonogenic assay in PSMA+ PC3 PIP cells; type: cell-based; conditions: 10 μCi dose

Sequence of prostate-specific membrane antigen (PSMA) (Q04609 whole entry): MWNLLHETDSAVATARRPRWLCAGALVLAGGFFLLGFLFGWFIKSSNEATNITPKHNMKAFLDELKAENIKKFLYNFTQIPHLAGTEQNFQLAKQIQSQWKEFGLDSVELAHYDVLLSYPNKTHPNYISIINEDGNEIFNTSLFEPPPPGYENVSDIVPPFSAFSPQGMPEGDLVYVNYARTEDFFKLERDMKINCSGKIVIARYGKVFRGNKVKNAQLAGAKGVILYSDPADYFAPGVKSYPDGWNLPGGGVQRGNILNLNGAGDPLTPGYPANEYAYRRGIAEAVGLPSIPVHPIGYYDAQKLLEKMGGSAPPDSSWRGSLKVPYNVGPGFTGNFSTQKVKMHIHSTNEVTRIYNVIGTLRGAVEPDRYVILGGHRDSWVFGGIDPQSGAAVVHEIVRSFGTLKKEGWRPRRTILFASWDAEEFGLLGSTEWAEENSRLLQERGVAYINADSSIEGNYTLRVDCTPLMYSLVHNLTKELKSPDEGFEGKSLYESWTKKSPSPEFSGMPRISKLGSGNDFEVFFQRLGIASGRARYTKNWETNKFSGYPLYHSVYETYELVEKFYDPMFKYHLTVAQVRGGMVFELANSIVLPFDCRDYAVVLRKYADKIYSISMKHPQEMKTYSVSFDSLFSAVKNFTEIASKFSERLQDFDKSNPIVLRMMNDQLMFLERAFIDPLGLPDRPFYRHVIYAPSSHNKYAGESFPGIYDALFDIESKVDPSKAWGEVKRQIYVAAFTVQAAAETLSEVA

## O=C(O)CC[C@H](NC(=O)N[C@@H](CCCCN(Cc1ccc(Br)cc1)C(=O)CCCCNC(=S)Nc1ccc(CC2CN(CC(=O)O)CCN(CC(=O)O)CCN(CC(=O)O)CCN2CC(=O)O)cc1)C(=O)O)C(=O)O (stereo partly drawn) [Compound 1]
[1]
  IC50: 0.57 nM
  Ki: 1.15 nM
  binding affinity for PSMA (in words): higher binding affinity compared to 3
[2]
  LogPoct/water: −3.0

## O=C(O)CC[C@H](NC(=O)N[C@@H](CCCCN(Cc1ccc(Br)cc1)C(=O)CCCCNC(=O)CN1CCN(CC(=O)O)CCN(CC(=O)O)CCN(CC(=O)O)CC1)C(=O)O)C(=O)O [Compound 2]
[1]
  IC50: 0.64 nM
  Ki: 1.28 nM
  binding affinity for PSMA (in words): higher binding affinity compared to 3
[2]
  LogPoct/water: −3.53

## O=C(O)CC[C@H](NC(=O)N[C@@H](CCCCNC(=O)CCCCNC(=S)Nc1ccc(CC2CN(CC(=O)O)CCN(CC(=O)O)CCN(CC(=O)O)CCN2CC(=O)O)cc1)C(=O)O)C(=O)O (stereo partly drawn) [Compound 3]
[1]
  IC50: 2.16 nM
  Ki: 0.43 nM
[2]
  LogPoct/water: −3.2

## O=C([O-])CN1CCN(CC(=O)[O-])CCN(CC(=O)O)C(Cc2ccc(NC(=S)NCCCCC(=O)N(CCCC[C@H](NC(=O)N[C@@H](CCC(=O)O)C(=O)O)C(=O)O)Cc3ccc(Br)cc3)cc2)CN(CC(=O)[O-])CC1.[177Lu+3] (stereo partly drawn) [^177Lu-1]
[3]
  toxicity for PSMA-PC3 flu cells (in words): no significant toxicity
[4]; 2 h
  tissue biodistribution Bladder: 3.39 ± 2.78 percent injected dose per gram
  tissue biodistribution Blood: 0.68 ± 0.25 percent injected dose per gram
  tissue biodistribution Fat: 0.35 ± 0.10 percent injected dose per gram
  tissue biodistribution Heart: 0.28 ± 0.08 percent injected dose per gram
  tissue biodistribution Kidney: 87.10 ± 25.99 percent injected dose per gram
  tissue biodistribution Liver: 0.39 ± 0.13 percent injected dose per gram
  tissue biodistribution Lung: 1.12 ± 0.33 percent injected dose per gram
  tissue biodistribution Muscle: 0.68 ± 0.98 percent injected dose per gram
  tissue biodistribution PC-3 Flu: 0.39 ± 0.03 percent injected dose per gram
  tissue biodistribution PC-3 PIP: 55.04 ± 7.23 percent injected dose per gram
  tissue biodistribution Pancreas: 0.28 ± 0.09 percent injected dose per gram
  tissue biodistribution Salivary gland (Sal. Gl): 1.09 ± 0.08 percent injected dose per gram
  tissue biodistribution Sm. Int.: 0.51 ± 0.32 percent injected dose per gram
  tissue biodistribution Spleen: 3.76 ± 0.70 percent injected dose per gram
  tissue biodistribution Stomach: 0.87 ± 0.63 percent injected dose per gram
[4]; 24 h
  tissue biodistribution Bladder: 0.31 ± 0.13 percent injected dose per gram
  tissue biodistribution Blood: 0.01 ± 0.01 percent injected dose per gram
  tissue biodistribution Fat: 0.08 ± 0.15 percent injected dose per gram
  tissue biodistribution Heart: 0.02 ± 0.05 percent injected dose per gram
  tissue biodistribution Kidney: 1.65 ± 0.30 percent injected dose per gram
  tissue biodistribution Liver: 0.11 ± 0.01 percent injected dose per gram
  tissue biodistribution Lung: 0.06 ± 0.01 percent injected dose per gram
  tissue biodistribution Muscle: 0.01 ± 0.00 percent injected dose per gram
  tissue biodistribution PC-3 Flu: 0.10 ± 0.02 percent injected dose per gram
  tissue biodistribution PC-3 PIP: 40.61 ± 7.00 percent injected dose per gram
  tissue biodistribution Pancreas: 0.02 ± 0.00 percent injected dose per gram
  tissue biodistribution Salivary gland (Sal. Gl): 0.09 ± 0.02 percent injected dose per gram
  tissue biodistribution Sm. Int.: 0.03 ± 0.01 percent injected dose per gram
  tissue biodistribution Spleen: 0.15 ± 0.05 percent injected dose per gram
  tissue biodistribution Stomach: 0.04 ± 0.01 percent injected dose per gram
[4]; 48 h
  tissue biodistribution Bladder: 0.12 ± 0.07 percent injected dose per gram
  tissue biodistribution Blood: 0.00 ± 0.01 percent injected dose per gram
  tissue biodistribution Fat: 0.01 ± 0.01 percent injected dose per gram
  tissue biodistribution Heart: 0.01 ± 0.00 percent injected dose per gram
  tissue biodistribution Kidney: 1.02 ± 0.58 percent injected dose per gram
  tissue biodistribution Liver: 0.09 ± 0.02 percent injected dose per gram
  tissue biodistribution Lung: 0.04 ± 0.01 percent injected dose per gram
  tissue biodistribution Muscle: 0.00 ± 0.00 percent injected dose per gram
  tissue biodistribution PC-3 Flu: 0.05 ± 0.01 percent injected dose per gram
  tissue biodistribution PC-3 PIP: 27.00 ± 7.03 percent injected dose per gram
  tissue biodistribution Pancreas: 0.01 ± 0.01 percent injected dose per gram
  tissue biodistribution Salivary gland (Sal. Gl): 0.05 ± 0.03 percent injected dose per gram
  tissue biodistribution Sm. Int.: 0.02 ± 0.00 percent injected dose per gram
  tissue biodistribution Spleen: 0.08 ± 0.03 percent injected dose per gram
  tissue biodistribution Stomach: 0.05 ± 0.04 percent injected dose per gram
[4]; 72 h
  tissue biodistribution Bladder: 0.06 ± 0.03 percent injected dose per gram
  tissue biodistribution Blood: 0.00 ± 0.04 percent injected dose per gram
  tissue biodistribution Fat: 0.06 ± 0.07 percent injected dose per gram
  tissue biodistribution Heart: 0.01 ± 0.00 percent injected dose per gram
  tissue biodistribution Kidney: 0.62 ± 0.04 percent injected dose per gram
  tissue biodistribution Liver: 0.07 ± 0.00 percent injected dose per gram
  tissue biodistribution Lung: 0.04 ± 0.02 percent injected dose per gram
  tissue biodistribution Muscle: 0.02 ± 0.02 percent injected dose per gram
  tissue biodistribution PC-3 Flu: 0.06 ± 0.01 percent injected dose per gram
  tissue biodistribution PC-3 PIP: 24.90 ± 2.27 percent injected dose per gram
  tissue biodistribution Pancreas: 0.01 ± 0.00 percent injected dose per gram
  tissue biodistribution Salivary gland (Sal. Gl): 0.05 ± 0.02 percent injected dose per gram
  tissue biodistribution Sm. Int.: 0.02 ± 0.01 percent injected dose per gram
  tissue biodistribution Spleen: 0.08 ± 0.02 percent injected dose per gram
  tissue biodistribution Stomach: 0.04 ± 0.00 percent injected dose per gram
[4]; mouse, in vivo
  uptake in PSMA+ PC3 PIP tumor (in words): higher uptake and retention in PSMA+ PC3 PIP tumor uptake than ^177Lu-2
[5]
  Cell uptake PSMA − PC3 flu: 0.09 percent incubated dose per one million cells
[6]
  internalized activity compared to ^177Lu-3: ~2 fold
  Cell surface: 27.68 percent incubated dose per one million cells
  Cell uptake PSMA + PC3 PIP: 42.60 percent incubated dose per one million cells
  Internalization (cell lysate): 15.88 percent incubated dose per one million cells
  uptake in PSMA+ PC3 cells (in words): higher uptake in PSMA+ PC3 cells compared to ^177Lu-3
[7]; mouse, in vivo
  remission of PSMA+ PC3 tumor bearing mice: about 50%
[7]; single dose of 3 mCi
  body weight during treatment (in words): regained after 2 weeks
  survival of mice in complete remission: more than five months
  therapeutic efficacy compared to the control group using saline (in words): decrease in tumor volume
[7]; single dose of 3 mCi via tail vein, n=10
  mice showing complete eradication of tumors: 50%
[7]; single dose of 3 mCi, n=10
  number of mice with complete remission of the disease: Five
[8]
  cell killing efficacy: about 100%

## O=C([O-])CN1CCN(CC(=O)[O-])CCN(CC(=O)NCCCCC(=O)N(CCCC[C@H](NC(=O)N[C@@H](CCC(=O)O)C(=O)O)C(=O)O)Cc2ccc(Br)cc2)CCN(CC(=O)[O-])CC1.[177Lu+3] [^177Lu-2]
[5]
  Cell uptake PSMA − PC3 flu: 0.12 percent incubated dose per one million cells
[6]
  Cell uptake PSMA + PC3 PIP: 40.6 percent incubated dose per one million cells
  uptake in PSMA+ PC3 cells (in words): higher uptake in PSMA+ PC3 cells compared to ^177Lu-3

## O=C([O-])CN1CCN(CC(=O)[O-])CCN(CC(=O)O)C(Cc2ccc(NC(=S)NCCCCC(=O)NCCCC[C@H](NC(=O)N[C@@H](CCC(=O)O)C(=O)O)C(=O)O)cc2)CN(CC(=O)[O-])CC1.[177Lu+3] (stereo partly drawn) [^177Lu-3]
[5]
  Cell uptake PSMA − PC3 flu: 0.05 percent incubated dose per one million cells
[6]
  Cell surface: 12.50 percent incubated dose per one million cells
  Cell uptake PSMA + PC3 PIP: 24.50 percent incubated dose per one million cells
  Internalization (cell lysate): 8.75 percent incubated dose per one million cells
